Assay results as given in patent publication US8580784B2, “Method for treating a disease related to the glucocorticoid receptor” (Santen Pharmaceutical Co., Ltd., priority 2006, dated 2013).

Target: T1, Recombinant human GR (Homo sapiens, UniProt P04150)
T1 construct: purchased Invitrogen P2816
T1 sequence (P04150 1-777): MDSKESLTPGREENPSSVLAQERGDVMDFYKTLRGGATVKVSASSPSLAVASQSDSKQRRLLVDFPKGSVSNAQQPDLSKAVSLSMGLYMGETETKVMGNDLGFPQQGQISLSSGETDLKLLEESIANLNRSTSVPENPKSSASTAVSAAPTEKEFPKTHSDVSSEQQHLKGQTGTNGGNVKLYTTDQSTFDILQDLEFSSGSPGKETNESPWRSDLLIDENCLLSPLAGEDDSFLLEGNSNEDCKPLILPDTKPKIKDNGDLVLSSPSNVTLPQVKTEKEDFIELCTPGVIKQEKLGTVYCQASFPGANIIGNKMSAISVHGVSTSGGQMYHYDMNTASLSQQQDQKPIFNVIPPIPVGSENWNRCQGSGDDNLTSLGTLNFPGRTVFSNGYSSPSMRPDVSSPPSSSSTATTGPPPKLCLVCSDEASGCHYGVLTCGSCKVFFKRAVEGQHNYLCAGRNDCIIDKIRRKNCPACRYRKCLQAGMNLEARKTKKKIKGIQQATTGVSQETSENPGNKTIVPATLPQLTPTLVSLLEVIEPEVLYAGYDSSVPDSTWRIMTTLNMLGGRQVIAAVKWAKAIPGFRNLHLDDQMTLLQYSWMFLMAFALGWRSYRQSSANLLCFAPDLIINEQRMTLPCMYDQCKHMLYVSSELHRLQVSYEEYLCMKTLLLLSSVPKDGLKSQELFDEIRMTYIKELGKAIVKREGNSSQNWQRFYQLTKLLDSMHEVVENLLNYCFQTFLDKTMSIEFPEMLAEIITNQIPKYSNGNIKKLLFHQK
Experiment: Evaluation test for binding activity to glucocorticoid receptor: receptor competitor assay by fluorescence polarization (Invitrogen GR competitor assay kit, cat No. P2816)
Conditions: 20 μM test compound solution, 10 μL per well plus 5 μL 4×GS1 and 5 μL 4×GR solution; room temperature 2 to 4 hours; a ratio of 100% or more is indicated by 100%
Procedure: A detailed explanation of this matter will be described in the section of “Pharmacological Test” in Examples described below. In order to find the usefulness of the present compound as a pharmaceutical, a glucocorticoid receptor competitor assay was carried out by a fluorescence polarization method by using a glucocorticoid receptor competitor assay kit (manufactured by Invitrogen, cat No. P2816) to study the glucocorticoid receptor binding activity of the present compound.
1. Evaluation Test for Binding Activity to Glucocorticoid Receptor (hereinafter referred to as “GR”)
In order to evaluate a binding activity to GR, a receptor competitor assay was carried out by a fluorescence polarization method. In the assay, a GR competitor assay kit (manufactured by Invitrogen, cat No. P2816) was used, and a procedure was carried out according to the protocol attached to the kit. Hereinafter, the specific method will be described.
(Preparation of Reagents)
GR screening buffer: A buffer containing 10 mM potassium phosphate (pH 7.4), 20 mM sodium molybdate (Na2MoO4), 0.1 mM ethylene diamine tetraacetic acid (EDTA), 5 mM dithiothreitol (DTT), 0.1 mM stabilizing peptide and 2% dimethylsulfoxide was prepared.
4×GS1 solution: Fluormone™ GS1, which is a fluorescent glucocorticoid ligand, was diluted with GR screening buffer, whereby a 4 nM solution was prepared.
4×GR solution: Recombinant human GR was diluted with GR screening buffer, whereby a 16 nM solution was prepared.
(Preparation of Test Compound Solution)
After a test compound was dissolved in dimethylsulfoxide, the resulting solution was diluted with GR screening buffer, whereby a 20 μM test compound solution was prepared.
(Test Method and Measurement Method)
1) The test compound solution was added in an amount of 10 μL into each well of a 384-well plate, and then, 4×GS1 solution and 4×GR solution were added in an amount of 5 μL into each well, respectively.
2) The plate was incubated in a dark place at room temperature for 2 to 4 hours.
3) By using a multimode plate reader, Analyst™ HT (manufactured by LJL Biosystems), fluorescence polarization of each well was measured. As the blank, a well containing GR screening buffer in place of the test compound and 4×GS1 solution was used.
4) The same procedure as that in the above 1) to 3) was carried out except that GR screening buffer was used in place of the test compound solution, and the obtained result was taken as the negative control.
5) The same procedure as that in the above 1) to 3) was carried out except that 2 mM dexamethasone was used in place of the test compound solution, and the obtained result was taken as the positive control.
(Calculation Equation of GR Binding Ratio)
A GR binding ratio (%) was calculated from the following equation. GR binding ratio(%)=100×[1−(fluorescence polarization of test compound solution−fluorescence polarization of positive control solution)/(fluorescence polarization of negative control solution−fluorescence polarization of positive control solution)] (Test Results and Discussion)

Row | Structure (SMILES) | inhibition at 20 µM [%] | inhibition at 20 µM (stock) [%]
1 | CCCS(=O)(=O)Oc1ccc(-c2ccc3c(c2CNc2ccccc2OC)C(C)=CC(C)(C)N3)c(OC)c1 [Compound 2-1, 5-(2-Methoxyphenylaminomethyl)-6-(2-methoxy-4-propylsulfonyloxyphenyl)-2,2,4-trimethyl-1,2-dihydroquioline] | 100 | 
2 | COc1ccc(C(=O)Oc2ccc(-c3ccc4c(c3CNc3ccccc3OC)C(C)=CC(C)(C)N4)c(OC)c2)cc1 [Compound 1-22, 6-[2-Methoxy-4-(4-methoxybenzoyloxy)phenyl]-5-(2-methoxyphenylaminomethyl)-2,2,4-trimethyl-1,2-dihydroquinoline] |  | 81
3 | COc1ccccc1NCc1c(-c2ccc(OC(=O)c3ccccc3SC)cc2OC)ccc2c1C(C)=CC(C)(C)N2 [Compound 1-26, 6-[2-Methoxy-4-(2-methylthiobenzoyloxy)phenyl]-5-(2-methoxyphenylaminomethyl)-2,2,4-trimethyl-1,2-dihydroquinoline] |  | 90
4 | COc1ccccc1NCc1c(-c2ccc(OC(=O)N3CCOCC3)cc2OC)ccc2c1C(C)=CC(C)(C)N2 [Compound 1-44, 6-[2-Methoxy-4-(morpholin-4-ylcarbonyloxy)phenyl]-5-(2-methoxyphenylaminomethyl)-2,2,4-trimethyl-1,2-dihydroquinoline] |  | 96
5 | COc1ccccc1NCc1c(-c2ccc(OC(=O)c3ccccc3OC)cc2OC)ccc2c1C(C)=CC(C)(C)N2 [Compound 1-4, 6-[2-Methoxy-4-(2-methoxybenzoyloxy)phenyl]-5-(2-methoxyphenylaminomethyl)-2,2,4-trimethyl-1,2-dihydroquinoline] |  | 95
6 | COc1ccccc1NCc1c(-c2ccc(OS(C)(=O)=O)cc2OC)ccc2c1C(C)=CC(C)(C)N2 [Compound 2-5, 6-(2-Methoxy-4-methylsulfonyloxyphenyl)-5-(2-methoxyphenylaminomethyl)-2,2,4-trimethyl-1,2-dihydroquioline] |  | 93
7 | COc1ccccc1NCc1c(-c2ccc(OC(=O)c3cccnc3)cc2OC)ccc2c1C(C)=CC(C)(C)N2 [Compound 1-8, 5-(2-Methoxyphenylaminomethyl)-6-[2-methoxy-4-(pyridin-3-ylcarbonyloxy)phenyl]-2,2,4-trimethyl-1,2-dihydroquinoline] | 98 | 
8 | COc1ccccc1NCc1c(-c2ccc(OS(=O)(=O)C3CCCC3)cc2OC)ccc2c1C(C)=CC(C)(C)N2 [Compound 2-10, 6-(4-Cyclopentylsulfonyloxy-2-methoxyphenyl)-5-(2-methoxyphenylaminomethyl)-2,2,4-trimethyl-1,2-dihydroquioline] |  | 100
9 | COc1ccccc1NCc1c(-c2ccc(OC(=O)c3cccs3)cc2OC)ccc2c1C(C)=CC(C)(C)N2 [Compound 1-15, 5-(2-Methoxyphenylaminomethyl)-6-[2-methoxy-4-(thiophen-2-ylcarbonyloxy)phenyl]-2,2,4-trimethyl-1,2-dihydroquinoline] |  | 99
10 | COC(=O)c1cccc(C(=O)Oc2ccc(-c3ccc4c(c3CNc3ccccc3OC)C(C)=CC(C)(C)N4)c(OC)c2)c1 [Compound 1-18, 6-[2-Methoxy-4-(3-methoxycarbonylbenzoyloxy)phenyl]-5-(2-methoxyphenylaminomethyl)-2,2,4-trimethyl-1,2-dihydroquinoline] |  | 86
11 | COc1ccccc1NCc1c(-c2ccc(OC(=O)C(C)C)cc2OC)ccc2c1C(C)=CC(C)(C)N2 [Compound 1-14, 6-(4-Isopropylcarbonyloxy-2-methoxyphenyl)-5-(2-methoxyphenylaminomethyl)-2,2,4-trimethyl-1,2-dihydroquinoline] |  | 99
12 | COc1ccccc1NCc1c(-c2ccc(OS(=O)(=O)C3CC3)cc2OC)ccc2c1C(C)=CC(C)(C)N2 [Compound 2-7, 6-(4-Cyclopropylsulfonyloxy-2-methoxyphenyl)-5-(2-methoxyphenylaminomethyl)-2,2,4-trimethyl-1,2-dihydroquioline] |  | 100

Next, values leading:

Row | inhibition at 20 µM [%] | inhibition at 20 µM (stock) [%] | Structure (SMILES)
13 |  | 92 | COc1ccccc1NCc1c(-c2ccc(OC(=O)c3ccco3)cc2OC)ccc2c1C(C)=CC(C)(C)N2 [Compound 1-1, 6-[4-(Furan-2-ylcarbonyloxy)-2-methoxyphenyl]-5-(2-methoxyphenylaminomethyl)-2,2,4-trimethyl-1,2-dihydroquioline]
14 |  | 90 | COc1cc(OC(=O)c2ccccc2Cl)ccc1-c1ccc2c(c1CNc1cc(F)ccc1C)C(C)=CC(C)(C)N2 [Compound 1-9, 6-[4-(2-Chlorobenzoyloxy)-2-methoxyphenyl]-5-(5-fluoro-2-methylphenylaminomethyl)-2,2,4-trimethyl-1,2-dihydroquinoline]
15 |  | 93 | COc1ccccc1NCc1c(-c2ccc(OC(=O)c3occc3C)cc2OC)ccc2c1C(C)=CC(C)(C)N2 [Compound 1-29, 6-[2-Methoxy-4-(3-methylfuran-2-ylcarbonyloxy)phenyl]-5-(2-methoxyphenylaminomethyl)-2,2,4-trimethyl-1,2-dihydroquinoline]
16 |  | 100 | COc1cc(OC(=O)c2cccnc2OC)ccc1-c1ccc2c(c1CNc1cc(F)ccc1C)C(C)=CC(C)(C)N2 [Compound 1-41, 5-(5-Fluoro-2-methylphenylaminomethyl)-6-[2-methoxy-4-(2-methoxypyridin-3-ylcarbonyloxy)phenyl]-2,2,4-trimethyl-1,2-dihydroquinoline]
17 |  | 97 | COc1ccccc1NCc1c(-c2ccc(OC(=O)c3ccoc3)cc2OC)ccc2c1C(C)=CC(C)(C)N2 [Compound 1-6, 6-[4-(Furan-3-ylcarbonyloxy)-2-methoxyphenyl]-5-(2-methoxyphenylaminomethyl)-2,2,4-trimethyl-1,2-dihydroquinoline]
18 |  | 88 | COc1ccccc1NCc1c(-c2ccc(OC(=O)c3sccc3Cl)cc2OC)ccc2c1C(C)=CC(C)(C)N2 [Compound 1-28, 6-[4-(3-Chlorothiophen-2-ylcarbonyloxy)-2-methoxyphenyl]-5-(2-methoxyphenylaminomethyl)-2,2,4-trimethyl-1,2-dihydroquinoline]
19 |  | 100 | CCCS(=O)(=O)Oc1ccc(-c2ccc3c(c2CNc2cc(F)ccc2C)C(C)=CC(C)(C)N3)c(OC)c1 [Compound 2-6, 5-(5-Fluoro-2-methylphenylaminomethyl)-6-(2-methoxy-4-propylsulfonyloxyphenyl)-2,2,4-trimethyl-1,2-dihydroquioline]
20 |  | 100 | COc1cc(OC(=O)c2occc2C)ccc1-c1ccc2c(c1CNc1cc(F)ccc1C)C(C)=CC(C)(C)N2 [Compound 1-42, 5-(5-Fluoro-2-methylphenylaminomethyl)-6-[2-methoxy-4-(3-methylfuran-2-ylcarbonyloxy)phenyl]-2,2,4-trimethyl-1,2-dihydroquinoline]
21 |  | 100 | COc1cc(OC(=O)c2ccoc2)ccc1-c1ccc2c(c1CNc1cc(F)ccc1C)C(C)=CC(C)(C)N2 [Compound 1-33, 5-(5-Fluoro-2-methylphenylaminomethyl)-6-[4-(furan-3-ylcarbonyloxy)-2-methoxyphenyl]-2,2,4-trimethyl-1,2-dihydroquinoline]
